Several values for one entry are separate records, joined by “and”; a condition that tells them apart may be missing. Equal values may be shown once. Entries after “also recorded” stand apart in the source; their conditions may differ.
Key:
[1] = test system: leucine transporter (LeuT); assay: LeuT long-term stability, [3H]-Leu binding by scintillation proximity assay (SPA); format: biochemical, Aquifex aeolicus; settings: room temperature, 12-day incubation; for LeuT long-term stability (ligand binding activity): CMC+0.04 wt %; for LeuT ligand binding activity maintained: CMC+0.2 wt %
Procedure: An experiment for measuring the structural stability of a LeuT protein due to M-XMAs or O-XMAs was performed. Each amphiphilic compound was used at CMC+0.04 wt % (a) or CMC+0.2 wt % (b), and the ligand-binding activity of LeuT was determined using [^3H]-Leu by scintillation proximity assay (SPA). Measurement was regularly performed at room temperature during a 12-day incubation period.
Specifically, wild-type leucine transporter (LeuT) derived from thermophilic bacteria Aquifex aeolicus was purified according to a previously disclosed protocol (G. Deckert et al., Nature 1998, 392, 353-358). In summary, LeuT was expressed in E. coli C41 (DE3) incubated in lysogeny broth supplemented with 0.1 mg/ml ampicillin. Protein expression was induced by adding isopropyl β-D-thiogalactopyranoside at the final concentration of 0.1 mM. Cell membranes were isolated from disrupted cells (Constant Systems Homogenizers, Kennesaw, Ga.), and solubilized in 1% (w/v) n-dodecyl-β-D-maltopyranoside (DDM; Affymetrix, Santa Clara, Calif.). After solubilization, LeuT was fixed to a chelating Sepharose Fast Flow resin (GE Healthcare), and approximately 90 to 100% pure LeuT was eluted in 20 mM Tris-HCl (pH 7.5), 199 mM KCl, 1 mM NaCl, 0.05% (w/v) DDM and 300 mM imidazole. Afterward, the purified LeuT (approximately 1.2 mg mL^−1) was diluted 10 times with buffer which is the same as that used above and supplemented with M-XMAs and O-XMA, except DDM and imidazole, at the final concentration of CMC+0.04% (w/v) or CMC+0.2% (w/v). DDM and P-XMA-C11 were used as positive controls. Protein samples were stored at room temperature, and protein activity at a predetermined time was determined by measuring [^3H]-Leucine binding using SPA. SPA was performed using a total volume of 100 μL of […] of each protein sample solubilized in a buffer containing 450 mM NaCl, 50 nM [^3H]-Leucine and 0.125 mg ml^−1 copper chelate (His-Tag) YSi beads (Perkin Elmer, Denmark). A [^3H]-Leucine binding degree was measured using a MicroBeta liquid scintillation counter (Perkin Elmer).

[2] = Hydrodynamic radius and size distribution of micelles by dynamic light scattering (DLS); format: physicochemical; settings: for Rh (nm), hydrodynamic radius of micelles: 1.0 wt % stated for M-/O-XMAs (FIG. 37); for size distribution of micelles (number of micelle sets): FIGS. 36 and 37
Procedure: A method for measuring the radius of a micelle is not particularly limited, but a method well known in the art may be used, and for example, the measurement may be performed using a dynamic light scattering (DLS) experiment.
(§1) Specifically, the critical micellar concentration (CMC) was measured using fluorescence staining and diphenylhexatriene (DPH), and the hydrodynamic radii (Rh) of the micelles formed by agents were measured through a dynamic light scattering (DLS) experiment. The measured results are shown in Tables 1 and 2, compared with a conventional amphiphilic molecule (detergent), DDM.

[3] = Critical micelle concentration by fluorescence staining with diphenylhexatriene (DPH); format: physicochemical; settings: aqueous solution
Procedure: While a method for measuring CMC is not particularly limited, a method widely known in the art may be used, and the measurement may be performed by, for example, a fluorescence staining method using diphenylhexatriene (DPH).
as §1

[4] = target: T1, human β2 adrenergic receptor (β2AR) (Homo sapiens, UniProt P07550); assay: [3H]-dihydroalprenolol radioligand binding of β2AR purified in detergent; settings: 10 nM [3H]-DHA, 30 minutes, room temperature
T1 construct: made in house
Procedure: An activation degree of a receptor (mBBr-β2AR) purified by DDM or XMAs was measured by [^3H]-dihydroalprenolol ([^3H]-DHA) binding.
Specifically, a radioligand binding assay was performed by the following method. β2AR was purified in the presence of 0.1% DDM. After β2AR was reloaded into an M1 Flag column in the presence of 2 mM CaCl2, a DDM (0.1%)-XMA (0.2%) buffer mixture was prepared in a ratio of 50:50, 20:80, 10:90, 5:95 or 0:100. The receptor was eluted in 20×CMC XMA with 5 mM EDTA and 0.2 mg/ml of a free Flag peptide. 0.1 pmol purified β2AR solubilized in DDM, P-XMA-C11, P-XMA-C12, M-XMAs or O-XMAs was incubated with 10 nM of radioactive DHA [^3H]-dihydroalprenolol (DHA) for 30 minutes at room temperature. The mixture was loaded into a G-50 column, and a flow-through was collected with a binding buffer (20 mM HEPES pH 7.5, supplemented with 0.5 mg/ml BSA, 100 mM NaCl), and further filled with 15 ml of a scintillation fluid. Receptor-binding [^3H]DHA was measured with a scintillation counter (Beckman). Non-specific binding of [^3H]-DHA was calculated by adding 1 μM of alprenolol (Sigma) in the same binding reaction. The binding degree of [^3H]-DHA was measured as a column graph.

[5] = target: T2, melibiose permease (MelB) (Salmonella typhimurium, UniProt P30878); assay: MelB extraction from membranes and thermostability, SDS-PAGE and western blotting
T2 construct: made in house; host or cells: Salmonella typhimurium DW2 cells (ΔmelB and ΔlacZY) (so in the source); membrane preparation
Procedure: An experiment for measuring the structural stability of the Salmonella typhimurium melibiose permease (MelB) protein due to XMAs was performed. The MelB protein was extracted on a membrane using XMAs and DDM, and the amount and structure of the extracted protein were analyzed by SDS-PAGE and western blotting. A concentration of the used compound was 1.5 wt %, and the protein was extracted at a different temperature (0, 45, 55, or 65° C.) to evaluate two kinds of performance such as protein extraction efficiency and stabilization ability of the compound at the same time. Membrane samples that were not treated with XMAs or DDM were used as controls.
Specifically, MelBSt stability due to DDM and XMAs was evaluated according to the method described in the paper (P. S. Chae, et al., Nat. Methods 2010, 7, 1003-1008) written by the inventor in 2010. The protein (MelBSt) was produced using plasmid pK95ΔAHB/WT MelBSt/CH10 encoding wild-type MelB with a 10-His tag at the C-terminus and Salmonella typhimurium DW2 cells (ΔmelB and ΔlacZY). Cell growth and membrane preparation were carried out according to the method described in the paper (Nat. Commun. 2014, 5, 3009) written by A. S. Ethayathulla et al. A protein assay was performed using a Micro BCA kit (Thermo Scientific, Rockford, Ill.). To measure solubilization/stability, MelBSt-containing membrane samples (final protein concentration of 10 mg/mL) were incubated with a solubilization buffer (20 mM sodium phosphate, pH 7.5, 200 mM NaCl, 10% glycerol, 20 mM melibiose) and 1.5% (w/v) DDM, P-XMAs (P-XMA-C8, P-XMA-C9, P-XMA-C10, P-XMA-C11 and P-XMA-C12), M-XMAs (M-XMA-C11, M-XMA-C12, M-XMA-C14, M-XMA-C16 and M-XMA-C18) or O-XMAs (O-XMA-C11, O-XMA-C12, O-XMA-C14, O-XMA-C16 and O-XMA-C18) at four different temperatures (0, 45, 55 and 65° C.) for 90 minutes. Following ultracentrifugation at 355,590 g in a Beckman Optima™ MAX ultracentrifuge using a TLA-100 rotor for 45 minutes at 4° C., 20 μg proteins were separated by SDS-16% PAGE, and then immunoblotted with a Penta-His-HRP antibody (Qiagen, Germantown, Md.). MelBSt was detected using a SuperSignal West Pico chemiluminescent substrate by an ImageQuant LAS 4000 Biomolecular Imager (GE Health Care Life Sciences).

[6] = target: T1, human β2 adrenergic receptor (β2AR); assay: mBBr-β2AR fluorescence spectrum after dilution to CMC or less; format: biochemical; settings: diluted with NH buffer, 30 minutes
Procedure: An experiment for comparing changes in protein structures of XMAs and DDM at CMC or less of an amphiphilic molecule was carried out.
Specifically, 0.5 μl of an unliganded mBB-labeled receptor solubilized in 20×CMC P-XMA-C11 or P-XMA-C12 at 50 μM was diluted with 500 μl of a NH buffer (20 mM HEPES pH 7.5, 100 mM NaCl). The protein was incubated for 30 minutes, and the mBBr spectrum was measured. The receptor solubilized in 0.1% DDM was diluted with a NH buffer, and used as a control.

T2 sequence (P30878 whole entry): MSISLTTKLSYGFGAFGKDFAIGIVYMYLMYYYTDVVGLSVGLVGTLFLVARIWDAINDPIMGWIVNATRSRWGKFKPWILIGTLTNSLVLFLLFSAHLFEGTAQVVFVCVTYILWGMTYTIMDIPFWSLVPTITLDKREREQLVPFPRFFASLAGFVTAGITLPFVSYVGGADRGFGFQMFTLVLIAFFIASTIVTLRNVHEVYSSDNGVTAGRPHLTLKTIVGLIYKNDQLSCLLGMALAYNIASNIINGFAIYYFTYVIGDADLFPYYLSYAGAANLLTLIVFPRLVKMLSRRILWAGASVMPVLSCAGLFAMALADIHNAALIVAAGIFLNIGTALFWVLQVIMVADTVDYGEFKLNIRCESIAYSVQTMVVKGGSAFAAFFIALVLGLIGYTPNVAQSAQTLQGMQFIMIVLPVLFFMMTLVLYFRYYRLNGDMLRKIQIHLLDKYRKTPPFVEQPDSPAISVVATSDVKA
T1 sequence (P07550 whole entry): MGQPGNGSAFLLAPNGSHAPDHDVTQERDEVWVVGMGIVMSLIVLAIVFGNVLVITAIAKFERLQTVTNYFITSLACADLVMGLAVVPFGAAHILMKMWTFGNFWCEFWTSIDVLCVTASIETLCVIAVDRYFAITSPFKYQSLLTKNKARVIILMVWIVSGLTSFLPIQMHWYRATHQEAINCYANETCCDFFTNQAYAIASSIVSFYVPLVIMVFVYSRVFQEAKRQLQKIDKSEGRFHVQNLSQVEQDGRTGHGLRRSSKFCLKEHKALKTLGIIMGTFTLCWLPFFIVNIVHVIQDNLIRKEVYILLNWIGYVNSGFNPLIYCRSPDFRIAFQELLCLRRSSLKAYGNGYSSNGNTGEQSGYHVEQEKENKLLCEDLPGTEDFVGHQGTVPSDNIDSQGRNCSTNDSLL

| Rh (nm), hydrodynamic radius of micelles [2] | CMC [3] | CMC (wt %) [3] [wt %] | Structure (SMILES) | LeuT long-term stability (ligand binding activity) [1] | LeuT ligand binding activity maintained [1] | [3H]-DHA binding degree of purified β2AR [4] | MelBSt stabilization ability compared with DDM ([5]; 1.5 wt % detergent, 0, 45, 55 and 65° C.) | MelB protein extraction efficiency ([5]; 1.5 wt % detergent, 45° C., 90 minutes) | MelB protein extraction / maintained solubilization ([5]; 1.5 wt % detergent, 55° C., 90 minutes) | MelB protein extraction ([5]; 1.5 wt % detergent, 65° C., 90 minutes) | size distribution of micelles (number of micelle sets) [2] | structural change of β2AR on dilution to CMC or less [6] |
| --- | --- | --- | --- | --- | --- | --- | --- | --- | --- | --- | --- | --- |
| 3.2 ± 0.03 nm | ~6.0 µM | ~0.0011 | CCCCCCCCCCCCC(CO[C@@H]1OC(CO)[C@@H](O[C@@H]2OC(CO)[C@@H](O)C(O)C2O)C(O)C1O)(CO[C@@H]1OC(CO)[C@@H](O[C@@H]2OC(CO)[C@@H](O)C(O)C2O)C(O)C1O)Cc1ccccc1CC(CCCCCCCCCCCC)(CO[C@@H]1OC(CO)[C@@H](O[C@@H]2OC(CO)[C@@H](O)C(O)C2O)C(O)C1O)CO[C@@H]1OC(CO)[C@@H](O[C@@H]2OC(CO)[C@@H](O)C(O)C2O)C(O)C1O (stereo partly shown) [O-XMA-C12] | substantial reinforcement of long-term stability of LeuT, compared with DDM | superior at maintaining the ligand binding activity of LeuT compared to DDM |  |  |  |  |  |  |  |
| 3.2 ± 0.01 nm | ~6.0 µM | ~0.0011 | CCCCCCCCCCCC(CO[C@@H]1OC(CO)[C@@H](O[C@H]2OC(CO)[C@@H](O)C(O)C2O)C(O)C1O)(CO[C@@H]1OC(CO)[C@@H](O[C@H]2OC(CO)[C@@H](O)C(O)C2O)C(O)C1O)Cc1cccc(C[C@](CCCCCCCCCCC)(CO[C@@H]2OC(CO)[C@@H](O[C@H]3OC(CO)[C@@H](O)C(O)C3O)C(O)C2O)CO[C@@H]2OC(CO)[C@@H](O[C@@H]3OC(CO)[C@@H](O)C(O)C3O)C(O)C2O)c1 (stereo partly shown) [M-XMA-C11] |  |  | higher radioactive-ligand binding degree than P-XMA-C11 |  |  |  |  |  |  |
| 3.3 ± 0.03 nm | ~3 µM and ~3.0 µM | ~0.0006 | CCCCCCCCCCCC(CO[C@@H]1OC(CO)[C@@H](O[C@H]2OC(CO)[C@@H](O)C(O)C2O)C(O)C1O)(CO[C@@H]1OC(CO)[C@@H](O[C@H]2OC(CO)[C@@H](O)C(O)C2O)C(O)C1O)Cc1ccc(CC(CCCCCCCCCCC)(CO[C@@H]2OC(CO)[C@@H](O[C@H]3OC(CO)[C@@H](O)C(O)C3O)C(O)C2O)CO[C@@H]2OC(CO)[C@@H](O[C@H]3OC(CO)[C@@H](O)C(O)C3O)C(O)C2O)cc1 (stereo partly shown) [P-XMA-C11] |  |  | radioactive-ligand binding degree similar to the receptor purified by DDM |  |  |  |  | two sets of micelles having different radii | less structural change |
| 3.4 ± 0.02 nm | ~4.0 µM | ~0.0008 | CCCCCCCCCCCCC(CO[C@@H]1OC(CO)[C@@H](O[C@H]2OC(CO)[C@@H](O)C(O)C2O)C(O)C1O)(CO[C@@H]1OC(CO)[C@@H](O[C@H]2OC(CO)[C@@H](O)C(O)C2O)C(O)C1O)Cc1cccc(C[C@](CCCCCCCCCCCC)(CO[C@@H]2OC(CO)[C@@H](O[C@H]3OC(CO)[C@@H](O)C(O)C3O)C(O)C2O)CO[C@@H]2OC(CO)[C@@H](O[C@@H]3OC(CO)[C@@H](O)C(O)C3O)C(O)C2O)c1 (stereo partly shown) [M-XMA-C12] | substantial reinforcement of long-term stability of LeuT, compared with DDM; also recorded: higher stability than O-XMA-C12 | superior at maintaining the ligand binding activity of LeuT compared to DDM; also recorded: generally better performance than O-XMA-C12 | superior to O-XMA-C12, and similar to DDM |  |  |  |  |  |  |

| Structure (SMILES) | Rh (nm), hydrodynamic radius of micelles [2] | CMC [3] | CMC (wt %) [3] [wt %] | LeuT long-term stability (ligand binding activity) [1] | LeuT ligand binding activity maintained [1] | [3H]-DHA binding degree of purified β2AR [4] | MelBSt stabilization ability compared with DDM ([5]; 1.5 wt % detergent, 0, 45, 55 and 65° C.) | MelB protein extraction efficiency ([5]; 1.5 wt % detergent, 45° C., 90 minutes) | MelB protein extraction / maintained solubilization ([5]; 1.5 wt % detergent, 55° C., 90 minutes) | MelB protein extraction ([5]; 1.5 wt % detergent, 65° C., 90 minutes) | size distribution of micelles (number of micelle sets) [2] | structural change of β2AR on dilution to CMC or less [6] |
| --- | --- | --- | --- | --- | --- | --- | --- | --- | --- | --- | --- | --- |
| CCCCCCCCCCCCC(CO[C@@H]1OC(CO)[C@@H](O[C@H]2OC(CO)[C@@H](O)C(O)C2O)C(O)C1O)(CO[C@@H]1OC(CO)[C@@H](O[C@H]2OC(CO)[C@@H](O)C(O)C2O)C(O)C1O)Cc1ccc(CC(CCCCCCCCCCCC)(CO[C@@H]2OC(CO)[C@@H](O[C@H]3OC(CO)[C@@H](O)C(O)C3O)C(O)C2O)CO[C@@H]2OC(CO)[C@@H](O[C@H]3OC(CO)[C@@H](O)C(O)C3O)C(O)C2O)cc1 (stereo partly shown) [P-XMA-C12] | 3.7 nm and 3.7 ± 0.01 nm | ~1 µM | ~0.0002 |  |  | radioactive-ligand binding degree similar to the receptor purified by DDM | higher MelBSt stabilization ability than DDM | extraction efficiency at the same level as DDM | higher MelBSt extraction ability than DDM | extracted MelBSt | two sets of micelles having different radii | less structural change |
